From PMC8300687, “A Fine-Tuned Lipophilicity/Hydrophilicity Ratio Governs Antibacterial Potency and Selectivity of Bifurcated Halogen Bond-Forming NBTIs” (Antibiotics, 2021)
In brackets after ≈: the same amount, converted by molar mass. Like-named read-outs stand apart in the source and are kept apart here.

How the values were obtained:
MRSA (QA-11.2) = assay: MIC broth microdilution, MRSA QA-11.2; format: cell-based, methicillin-resistant S. aureus; details: Staphylococcus aureus, 20 h, read-out: MIC MRSA (QA-11.2)
Protocol: (§1) Antimicrobial testing was carried out by the broth microdilution method in 96-well plate format following the Clinical and Laboratory Standards Institute (CLSI) guidelines and European Committee on Antimicrobial Susceptibility Testing (EUCAST) recommendations. Bacterial suspension of specific bacterial strain equivalent to 0.5 McFarland turbidity standard was diluted with cation-adjusted Mueller Hinton broth with TES (Thermo Fisher Diagnostic, Landsmeer, The Netherlands), to obtain a final inoculum of 10^5 CFU/mL. Compounds dissolved in DMSO and inoculum were mixed together and incubated for 18–20 h at 35 °C. Suspensions of Mycobacterium sp. were prepared into a tube of Middelbrook 7H9 broth supplemented with 5% OADC (Thermo Scientific, Trek Diagnostic Systems, West Sussex, UK) and incubated for at least 10 days. After incubation the minimal inhibitory concentration (MIC) values were determined by visual inspection as the lowest dilution of compounds showing no turbidity. Tetracycline was used as a positive control on every assay plate.

in vitro = details: PAMPA
Protocol: Prior to the measurements of solubility and permeability isocratic HPLC methods were developed. […] The individual method parameters for each compound are given in the Supplementary Materials Table S1.
A 96-well precoated three-layer PAMPA plates (Corning® Gentest™ Pre-coated PAMPA Plate System, Corning, NY, USA) were used according to the manufacturer’s instructions and as described previously with 300 µL of the donor solutions in the bottom compartment and 200 µL of the acceptor solution (pH 7.4 PBS) in the upper compartment at 37 °C and a 4-h incubation time. The initial and end donor solutions were injected at a 5 µL injection volume. The initial donor solutions were also diluted 100-fold and injected at a 100 µL injection volume to serve as external references for the end acceptor solutions which were injected at the same injection volume. The permeability calculations were made with a manufacturer-provided Excel spreadsheet directly from the measured peak areas accounting for the relevant dilutions and injection volumes.

E. coli N43 (CGSC# 5583) = assay: MIC broth microdilution, E. coli N43; format: cell-based; details: Escherichia coli
Protocol: as §1

E. coli D22 = assay: MIC broth microdilution, E. coli D22; format: cell-based; details: Escherichia coli
Protocol: as §1

[1] = tested on: S. agalactiae RDK 047 (QA-990/02); assay: MIC broth microdilution, S. agalactiae; format: cell-based
Protocol: as §1

MRSA = assay: MIC broth microdilution, MRSA; format: cell-based, methicillin-resistant S. aureus; details: Staphylococcus aureus, read-out: MIC MRSA
Protocol: as §1

HUVEC = assay: Metabolic activity assessment (cytotoxicity), HUVEC; format: cell-based; details: Homo sapiens, metabolic activity after 72 h treatment
Protocol: Cells of the HepG2 line (ATCC® HB-8065™) and HUVEC (ATCC® CRL-1730™) were cultured in Dulbecco’s Modified Eagle Medium (DMEM; Sigma-Aldrich, St. Louis, MO, USA) supplemented with 10% heat-deactivated FBS (Gibco, Grand Island, NE, USA), 2 mM L-glutamine, 100 U/mL penicillin, 100 μg/mL streptomycin (all from Sigma-Aldrich, St. Louis, MO, USA) in a humidified chamber at 37 °C and 5% CO2. The experiments were carried out on passages 7–9 for both cell lines. The tested compounds were dissolved in DMSO and further diluted in culture medium to a desired final concentration. Cells were seeded into 96-well plates at 8 × 10^4 cells/mL (100 μL/well) and incubated for 24 h to attach onto the wells. Cells were treated with 1 μM and 50 μM of each compound of interest or corresponding vehicle as control. […] The metabolic activity was assessed after 72 h treatment using the CellTiter 96 Aqueous One Solution Cell Proliferation Assay (Promega, Madison, WI, USA), in accordance with the manufacturer’s instructions. The absorbance was measured at 492 nm on an automated microplate reader BioTek Synergy HT (BioTek Instruments, Inc., Winooski, VT, USA). Data are presented as the percentage of metabolic activity of control cells stimulated with vehicle or as IC50 value (mean ± SD) from two independent experiments, each conducted in duplicate or triplicate. IC50 values were calculated by a non-linear regression model using Graph Pad Prism 7 software.

[2] = tested on: E. faecalis DRK 057 (ATCC 29212); assay: MIC broth microdilution, E. faecalis; format: cell-based
Protocol: as §1

[3] = tested on: P. aeruginosa RDK 184 (DSM 939); assay: MIC broth microdilution, P. aeruginosa; format: cell-based
Protocol: as §1

Human topoisomerase IIα = molecular target: T1, Human topoisomerase IIα (Homo sapiens, UniProt P11388); assay: Human topoisomerase II Alpha Relaxation High Throughput Plate assay; format: biochemical; details: 0.5 h; residual activity of the enzyme at compound concentration 10 μM, mean ± SD; read-out: Human Topo II (% RA)
T1 construct: purchased Inspiralis (Norwich, UK)
T1 sequence (P11388 whole entry): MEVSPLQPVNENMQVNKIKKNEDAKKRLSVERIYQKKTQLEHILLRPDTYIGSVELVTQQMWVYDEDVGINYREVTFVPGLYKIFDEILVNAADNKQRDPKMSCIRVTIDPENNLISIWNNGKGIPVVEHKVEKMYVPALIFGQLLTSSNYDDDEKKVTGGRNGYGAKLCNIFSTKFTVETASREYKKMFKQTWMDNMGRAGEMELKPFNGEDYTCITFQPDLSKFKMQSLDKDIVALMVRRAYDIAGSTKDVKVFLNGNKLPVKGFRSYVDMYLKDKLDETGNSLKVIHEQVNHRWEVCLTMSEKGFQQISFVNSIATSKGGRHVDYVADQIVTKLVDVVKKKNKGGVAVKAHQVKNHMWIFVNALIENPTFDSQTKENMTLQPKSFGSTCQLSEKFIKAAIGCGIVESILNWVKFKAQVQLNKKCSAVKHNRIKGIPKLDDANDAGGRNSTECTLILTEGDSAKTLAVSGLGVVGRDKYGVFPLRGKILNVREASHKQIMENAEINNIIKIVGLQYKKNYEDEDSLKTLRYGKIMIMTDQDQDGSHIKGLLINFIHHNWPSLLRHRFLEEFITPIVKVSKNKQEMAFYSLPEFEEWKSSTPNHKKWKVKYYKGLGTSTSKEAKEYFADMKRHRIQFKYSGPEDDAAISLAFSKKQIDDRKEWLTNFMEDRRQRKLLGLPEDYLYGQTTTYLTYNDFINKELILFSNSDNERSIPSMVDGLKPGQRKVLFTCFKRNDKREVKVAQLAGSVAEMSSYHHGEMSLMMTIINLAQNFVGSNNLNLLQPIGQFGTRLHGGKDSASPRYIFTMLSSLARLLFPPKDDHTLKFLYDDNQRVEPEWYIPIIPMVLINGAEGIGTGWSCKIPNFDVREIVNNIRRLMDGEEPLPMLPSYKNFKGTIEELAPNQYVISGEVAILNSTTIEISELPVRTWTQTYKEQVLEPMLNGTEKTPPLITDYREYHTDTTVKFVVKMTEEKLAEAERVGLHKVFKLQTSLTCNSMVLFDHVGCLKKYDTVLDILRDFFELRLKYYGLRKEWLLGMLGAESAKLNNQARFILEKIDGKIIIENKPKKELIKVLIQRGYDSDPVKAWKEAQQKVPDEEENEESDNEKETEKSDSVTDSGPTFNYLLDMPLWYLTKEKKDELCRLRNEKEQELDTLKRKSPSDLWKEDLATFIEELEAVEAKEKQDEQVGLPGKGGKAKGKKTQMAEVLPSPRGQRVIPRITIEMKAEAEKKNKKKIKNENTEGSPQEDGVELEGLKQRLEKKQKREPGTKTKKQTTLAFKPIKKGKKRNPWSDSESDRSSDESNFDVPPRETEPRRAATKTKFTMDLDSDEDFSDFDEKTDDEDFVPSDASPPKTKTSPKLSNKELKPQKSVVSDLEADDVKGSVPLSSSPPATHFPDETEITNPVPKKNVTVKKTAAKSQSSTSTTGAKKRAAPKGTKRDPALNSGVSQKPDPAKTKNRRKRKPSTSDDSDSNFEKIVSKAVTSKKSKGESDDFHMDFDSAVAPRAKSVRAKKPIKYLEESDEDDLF
Protocol: A Human topoisomerase II Alpha Relaxation High Throughput Plate assay kit, purchased from Inspiralis (Norwich, UK) was used to evaluate the selectivity of compounds for the bacterial enzymes over the homologous human topoisomerase II. […] Biotinylated oligonucleotide in wash buffer was immobilized onto the wells and the excess oligonucleotide was washed off with wash buffer. […] The reactions were stopped by adding the TF buffer (50 mM NaOAc (pH 4.7), 50 mM NaCl, and 50 mM MgCl2) to allow the triplex formation (biotin-oligonucleotide-plasmid) for additional 30 min. Afterward, the unbound plasmid was washed off using TF buffer, and the solution of Promega Diamond dye in T10 buffer (10 mM Tris-HCl (pH 8.0), 1 mM EDTA) was added. […] Screening was performed at inhibitor concentrations of 10 μM. Raw data were converted to mean ± SD percentage of residual activity of the enzyme obtained by two independent measurements.

MRSA (QA-11.6) = assay: MIC broth microdilution, MRSA QA-11.6; format: cell-based, methicillin-resistant S. aureus; details: Staphylococcus aureus, read-out: MIC MRSA (QA-11.6)
Protocol: as §1

MRSA (QA-11.4) = assay: MIC broth microdilution, MRSA QA-11.4; format: cell-based, methicillin-resistant S. aureus; details: Staphylococcus aureus, 20 h, read-out: MIC MRSA (QA-11.4)
Protocol: as §1

S. pneumoniae (QA-10/02) = assay: MIC broth microdilution, S. pneumoniae; format: cell-based; details: Streptococcus pneumoniae
Protocol: as §1

[4] = read-out: E. coli N43 MIC in molar
[5] = read-out: MIC E. coli N43 (CGSC# 5583)
[6] = resistant to cefoxitin, chloramphenicol, clindamycin, linezolid, tetracycline, thiamulin, trimethoprim
[7] = D22, mutation in the lpxC gene that increases membrane permeability, read-out: MIC E. coli D22
[8] = Streptococcus agalactiae; read-out: MIC S. agalactiae RDK 047 (QA-990/02)
[9] = Enterococcus faecalis, ATCC29212; read-out: MIC E. faecalis DRK 057 (ATCC 29212)
[10] = Pseudomonas aeruginosa, DSM939; read-out: MIC P. aeruginosa RDK 184 (DSM 939)
[11] = resistant to cefoxitin, gentamicin, sulfamethoxazole, tetracycline

COc1ccc2nccc(CCN3CCC(NCc4c(C)nc5c(C)cccn45)CC3)c2n1 [Compound 6, N-((2,8-Dimethylimidazo[1,2-a]pyridin-3-yl)methyl)-1-(2-(6-methoxy-1,5-naphthyridin-4-yl)ethyl)piperidin-4-amine]
MIC (MRSA (QA-11.2)): > 128 µg/mL | Papp at 4 h (in vitro): > 2.7 ×10⁻⁶ cm/s | Papp at 4 h (in vitro; pH 7.4): 5.6 ×10⁻⁶ cm/s | MIC (E. coli N43 (CGSC# 5583); [4]): 288 µM | MIC (E. coli N43 (CGSC# 5583); [5]): 128 µg/mL | MIC (E. coli D22; D22, read-out: MIC E. coli D22): > 128 µg/mL | MIC ([1]; Streptococcus agalactiae, read-out: MIC S. agalactiae RDK 047 (QA-990/02)): 128 µg/mL (≈ 288 µM) | MIC (MRSA): > 128 µg/mL | IC50 (HUVEC): > 50 µM | MIC ([2]; Enterococcus faecalis, ATCC29212, read-out: MIC E. faecalis DRK 057 (ATCC 29212)): > 128 µg/mL | MIC ([3]; Pseudomonas aeruginosa, DSM939, read-out: MIC P. aeruginosa RDK 184 (DSM 939)): > 128 µg/mL | remaining activity at 10 µM (Human topoisomerase IIα): 99.4 ± 9.93% | MIC (MRSA (QA-11.6)): > 128 µg/mL | MIC (MRSA (QA-11.4)): > 128 µg/mL | MIC (S. pneumoniae (QA-10/02)): > 128 µg/mL

COc1ccc2nccc(CCN3CCC(NCc4cnn(-c5ccccc5)n4)CC3)c2n1 [Compound 8, 1-(2-(6-Methoxy-1,5-naphthyridin-4-yl)ethyl)-N-((2-phenyl-2H-1,2,3-triazol-4-yl)methyl)piperidin-4-amine]
MIC (MRSA (QA-11.2); [6]): 0.5 µg/mL (≈ 1.13 µM) | Papp at 4 h (in vitro): > 2.7 ×10⁻⁶ cm/s | Papp at 4 h (in vitro; pH 7.4): 10.6 ×10⁻⁶ cm/s | MIC (E. coli N43 (CGSC# 5583); [4]): 2.26 µM | MIC (E. coli N43 (CGSC# 5583); [5]): 1 µg/mL | MIC (E. coli D22; [7]): 32 µg/mL (≈ 72.1 µM) | MIC [1, 8]: 0.5 µg/mL (≈ 1.13 µM) | MIC (MRSA): 0.5 µg/mL (≈ 1.13 µM) | IC50 (HUVEC): 39.4 ± 5.47 µM | MIC [2, 9]: 1 µg/mL (≈ 2.25 µM) | MIC [3, 10]: > 128 µg/mL | remaining activity at 10 µM (Human topoisomerase IIα): 94.2 ± 2.9% | MIC (MRSA (QA-11.6); [11]): 0.5 µg/mL (≈ 1.13 µM) | MIC (MRSA (QA-11.4); resistant to cefoxitin): 1 µg/mL (≈ 2.25 µM) | MIC (S. pneumoniae (QA-10/02)): 0.25 µg/mL (≈ 0.564 µM)

COc1ccc2nccc(CCN3CCC(NCc4cnn(C(C)C)c4)CC3)c2n1 [Compound 9, N-((1-Isopropyl-1H-pyrazol-4-yl)methyl)-1-(2-(6-methoxy-1,5-naphthyridin-4-yl)ethyl)piperidin-4-amine]
MIC (MRSA (QA-11.2); [6]): 1 µg/mL (≈ 2.45 µM) | Papp at 4 h (in vitro): > 2.7 ×10⁻⁶ cm/s | Papp at 4 h (in vitro; pH 7.4): 3.3 ×10⁻⁶ cm/s | MIC (E. coli N43 (CGSC# 5583); [4]): 0.61 µM | MIC (E. coli N43 (CGSC# 5583); [5]): 0.25 µg/mL | MIC (E. coli D22; [7]): 1 µg/mL (≈ 2.45 µM) | MIC [1, 8]: 0.5 µg/mL (≈ 1.22 µM) | MIC (MRSA): 0.25 µg/mL (≈ 0.612 µM) | IC50 (HUVEC): > 50 µM | MIC [2, 9]: 1 µg/mL (≈ 2.45 µM) | MIC [3, 10]: > 128 µg/mL | remaining activity at 10 µM (Human topoisomerase IIα): 101 ± 6.82% | MIC (MRSA (QA-11.6); [11]): 1 µg/mL (≈ 2.45 µM) | MIC (MRSA (QA-11.4); resistant to cefoxitin): 1 µg/mL (≈ 2.45 µM) | MIC (S. pneumoniae (QA-10/02)): 0.5 µg/mL (≈ 1.22 µM)

C=CCn1cc(CNC2CCN(CCc3ccnc4ccc(OC)nc34)CC2)cn1 [Compound 10, N-((1-Allyl-1H-pyrazol-4-yl)methyl)-1-(2-(6-methoxy-1,5-naphthyridin-4-yl)ethyl)piperidin-4-amine]
MIC (MRSA (QA-11.2); [6]): 4 µg/mL (≈ 9.84 µM) | Papp at 4 h (in vitro): > 2.7 ×10⁻⁶ cm/s | Papp at 4 h (in vitro; pH 7.4): 4.1 ×10⁻⁶ cm/s | MIC (E. coli N43 (CGSC# 5583); [4]): 2.46 µM | MIC (E. coli N43 (CGSC# 5583); [5]): 1 µg/mL | MIC (E. coli D22; [7]): 8 µg/mL (≈ 19.7 µM) | MIC [1, 8]: 4 µg/mL (≈ 9.84 µM) | MIC (MRSA): 2 µg/mL (≈ 4.92 µM) | IC50 (HUVEC): > 50 µM | MIC [2, 9]: 8 µg/mL (≈ 19.7 µM) | MIC [3, 10]: > 128 µg/mL | remaining activity at 10 µM (Human topoisomerase IIα): 95.7 ± 6.42% | MIC (MRSA (QA-11.6); [11]): 4 µg/mL (≈ 9.84 µM) | MIC (MRSA (QA-11.4); resistant to cefoxitin): 4 µg/mL (≈ 9.84 µM) | MIC (S. pneumoniae (QA-10/02)): 1 µg/mL (≈ 2.46 µM)
